In PMC6001238, “Iterative Chemical Engineering of Vancomycin Leads to Novel Vancomycin Analogs With a High in Vitro Therapeutic Index” (Frontiers in Microbiology, 2018):
In brackets after ≈: the same amount, converted by molar mass. Where two headings read alike, the source gives them in different places.

What was measured:
E. faecalis VRE 37 = assay: MIC, broth microdilution, vancomycin-resistant E. faecalis VRE 37 (VanA); assay type: cell-based, Enterococcus faecalis
Procedure, shortened: (§1)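 CLSI broth microdilution; water and uninoculated-broth controls; one arm supplemented with vancomycin, final 10 μM, given with analogue or control antibiotic.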

MRSA KS2 = assay: MIC, broth microdilution, MRSA KS2; assay type: cell-based, Staphylococcus aureus
Procedure, shortened: as §1

MRSA KS1 = assay: MIC, broth microdilution, MRSA KS1; assay type: cell-based, Staphylococcus aureus
Procedure, shortened: as §1

E. faecalis VSE 1 = assay: MIC, broth microdilution, vancomycin-sensitive E. faecalis (VSE 1); assay type: cell-based, Enterococcus faecalis
Procedure, shortened: as §1

MRSA [1] = assay: Minimum bactericidal concentration against MRSA; assay type: cell-based, Staphylococcus aureus
Description: Plates were incubated overnight at 37°C and colony growth was inspected.

E. faecalis VRE 53 = assay: MIC, broth microdilution, vancomycin-resistant E. faecalis VRE 53 (VanA); assay type: cell-based, Enterococcus faecalis
Procedure, shortened: as §1

E. faecalis VRE 6 = assay: MIC, broth microdilution, vancomycin-resistant E. faecalis VRE 6 (VanA); assay type: cell-based, Enterococcus faecalis
Procedure, shortened: as §1

[2] = tested on: human cervix carcinoma (HeLa) cells; assay: Cytostatic activity, HeLa cell proliferation; assay type: cell-based; conditions: Homo sapiens, HeLa, 96 h; mean ± SD of three experiments; highest concentration tested 250 µM; 4 days; read-out: Toxicity (IC50) HeLa
Procedure, shortened: (§2)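 Test compounds, serially diluted, received an equal volume of cell suspension at 300,000–500,000 cells/mL. After 37°C incubation (2 days for L1210, 3 for CEM, 4 for HeLa), cells were enumerated by Coulter counting and 50%-inhibitory concentrations calculated per cell type.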

S. aureus VRSA = assay: MIC, broth microdilution, vancomycin-resistant S. aureus (VRSA); assay type: cell-based, Staphylococcus aureus
Procedure, shortened: as §1

[3] = tested on: human T-lymphocyte (CEM) cells; assay: Cytostatic activity, CEM cell proliferation; assay type: cell-based; conditions: Homo sapiens, CCRF-CEM, 72 h; mean ± SD of three experiments; highest concentration tested 250 µM; 3 days; read-out: Toxicity (IC50) CEM
Procedure, shortened: as §2

VE 157 (VanB) = assay: MIC, VanB-type VRE strain VE 157; assay type: cell-based, Enterococcus; conditions: Enterococcus; VE 157, VanB; read-out: MIC
Description: (§3) The minimum inhibitory concentration (MIC) was determined using the broth microdilution method according to the antimicrobial susceptibility testing standards of the clinical and laboratory standards institute ([Clinical and Laboratory Standards Institute [CLSI], 2012]). Ultrapure water and non-inoculated broth were used as controls. In one case, a final concentration of 10 μM vancomycin was included with the vancomycin analog or control antibiotic.

E. faecalis VRE 29 = assay: MIC, broth microdilution, vancomycin-resistant E. faecalis VRE 29 (VanA); assay type: cell-based, Enterococcus faecalis
Procedure, shortened: as §1

MRSA KS89 = assay: MIC, broth microdilution, MRSA KS89; assay type: cell-based, Staphylococcus aureus
Procedure, shortened: as §1

VE 82 (VanC1) = assay: MIC, VanC1-type VRE strain VE 82; assay type: cell-based, Enterococcus gallinarum; conditions: Enterococcus gallinarum; VE 82, VanC1; read-out: MIC
Description: as §3

33 clinical VRE isolates = assay: MIC against a set of 33 clinical VRE isolates (range, MIC50, TI); assay type: cell-based, Enterococcus faecalis
Description: as §3

[4] = tested on: Murine leukemia (L1210) cells; assay: Cytostatic activity, L1210 cell proliferation; assay type: cell-based; conditions: Mus musculus, L1210, 48 h; mean ± SD of three experiments; highest concentration tested 250 µM; 2 days; read-out: Toxicity (IC50) L1210
Procedure, shortened: as §2

S. aureus VISA/HIP5827 = assay: MIC, broth microdilution, vancomycin-intermediate S. aureus VISA HIP5827; assay type: cell-based, Staphylococcus aureus
Procedure, shortened: as §1

VE 150 (VanB) = assay: MIC, VanB-type VRE strain VE 150; assay type: cell-based, Enterococcus; conditions: Enterococcus; VE 150, VanB; read-out: MIC
Description: as §3

MRSA [5] = assay: Time-kill curves, MRSA at 4x MIC; assay type: cell-based, Staphylococcus aureus; conditions: 1-24 h
Description: Time-kill curves were determined based on the CLSI guidelines ([Clinical and Laboratory Standards Institute [CLSI], 1999]). Single colonies grown overnight at 37°C were resuspended in Ca^2+-adjusted (0.05 mg/mL) Mueller Hinton broth up to an optical density (625 nm) of 0.08–00.10 (corresponding to the 0.5 McFarland standard), followed by a 10-fold dilution in the same broth. Subsequently, 0.2 mL inoculum was added to 1.7 mL Ca^2+-adjusted (0.05 mg/mL) Mueller Hinton broth, followed by addition of the antibacterial compound (0.1 mL). The final concentration of the antibacterial compound corresponded to the 4x MIC value for that compound. For the antibiotic-free control, the compound was replaced by an equal volume of ultrapure water. The final inoculum concentration was approximately 10^6 CFU/mL. The cultures were continuously shaken at 37°C. After 1, 2, 4, 6, 8, and 24 h, a 0.1 mL aliquot was removed, serially diluted in cold 0.9% w/v NaCl and plated on BHI (VRE) and LB (MRSA) agar plates. Plates were incubated overnight at 37°C and colonies were counted.

VE 149 (VanB) = assay: MIC, VanB-type VRE strain VE 149; assay type: cell-based, Enterococcus; conditions: Enterococcus; VE 149, VanB; read-out: MIC
Description: as §3

[6] = tested on: S. aureus VSSA (ATCC 6538); assay: MIC, broth microdilution, vancomycin-sensitive S. aureus (VSSA/MSSA, ATCC 6538); assay type: cell-based, Staphylococcus aureus
Procedure, shortened: as §1

VE 152 (VanB) = assay: MIC, VanB-type VRE strain VE 152; assay type: cell-based, Enterococcus; conditions: Enterococcus; VE 152, VanB; read-out: MIC
Description: as §3

VE 148 (VanB) = assay: MIC, VanB-type VRE strain VE 148; assay type: cell-based, Enterococcus; conditions: Enterococcus; VE 148, VanB; read-out: MIC
Description: as §3

MRSA KS6 = assay: MIC, broth microdilution, MRSA KS6; assay type: cell-based, Staphylococcus aureus
Procedure, shortened: as §1

[7] = tested on: 24 clinical MRSA isolates; assay: MIC against a set of 24 clinical MRSA isolates (range, MIC50, TI); assay type: cell-based, Staphylococcus aureus
Description: as §3

[8] = tested on: L1210, CEM and HeLa cell lines; assay: Cytostatic activity, average or summary over L1210, CEM and HeLa; assay type: cell-based
Procedure, shortened: as §2

CC(=O)NC[C@H]1CN(c2ccc(N3CCOCC3)c(F)c2)C(=O)O1 [Linezolid, reference compound]
MIC (E. faecalis VRE 37; Enterococcus faecalis, VRE): 6.25 µM (≈ 2.11 µg/mL)
MIC-fold improvement vs. vancomycin (E. faecalis VRE 37; VRE 37, ratio of MIC of vancomycin and MIC of analogue): 64
MIC-fold improvement vs. vancomycin (MRSA KS2; MRSA KS2, ratio of MIC of vancomycin and MIC of analogue): 0.1
MIC (MRSA KS2; Staphylococcus aureus, MRSA): 6.25 µM (≈ 2.11 µg/mL)
MIC-fold improvement vs. vancomycin (MRSA KS1; MRSA KS1, ratio of MIC of vancomycin and MIC of analogue): 0.05
MIC (MRSA KS1; Staphylococcus aureus MRSA KS1, read-out: MIC): 12.5 µM (≈ 4.22 µg/mL)
MIC (E. faecalis VSE 1; VSE1, Enterococcus faecalis VSE 1 (vancomycin-sensitive), read-out: MIC): > 3.13 µM
MIC-fold improvement vs. vancomycin (E. faecalis VSE 1; VSE 1, ratio of MIC of vancomycin and MIC of analogue): <0.5
MBC relative to MIC (MRSA [1]): more than four times higher than the corresponding MIC
MIC (E. faecalis VRE 53; Enterococcus faecalis, VRE): 6.25 µM (≈ 2.11 µg/mL)
MIC-fold improvement vs. vancomycin (E. faecalis VRE 53; VRE 53, ratio of MIC of vancomycin and MIC of analogue): 64
MIC (E. faecalis VRE 6; Enterococcus faecalis VRE 6 (vancomycin-resistant), read-out: MIC): 12.5 µM (≈ 4.22 µg/mL)
MIC-fold improvement vs. vancomycin (E. faecalis VRE 6; VRE 6, ratio of MIC of vancomycin and MIC of analogue): 16
IC50 [2]: 216 ± 48 µM
MIC (S. aureus VRSA; Staphylococcus aureus VRSA): 6.25 µM (≈ 2.11 µg/mL)
MIC-fold improvement vs. vancomycin (S. aureus VRSA; VRSA, ratio of MIC of vancomycin and MIC of analogue): 16
IC50 [3]: > 250 µM
MIC (VE 157 (VanB)): 12.5 µM (≈ 4.22 µg/mL)
MIC (E. faecalis VRE 29; Enterococcus faecalis, VRE): 6.25 µM (≈ 2.11 µg/mL)
MIC-fold improvement vs. vancomycin (E. faecalis VRE 29; VRE 29, ratio of MIC of vancomycin and MIC of analogue): 64
MIC-fold improvement vs. vancomycin (MRSA KS89; MRSA KS8 (head; KS89 in title), ratio of MIC of vancomycin and MIC of analogue): 0.1
MIC (MRSA KS89; Staphylococcus aureus, MRSA): 6.25 µM (≈ 2.11 µg/mL)
MIC (VE 82 (VanC1)): 12.5 µM (≈ 4.22 µg/mL)
MIC Range (33 clinical VRE isolates; 33 clinical VRE isolates): 3.13 to 50 µM
MIC50 (33 clinical VRE isolates; Enterococcus, median MIC, 33 clinical VRE isolates, read-out: MIC50): 6.25 µM (≈ 2.11 µg/mL)
TI (IC50/MIC50) (33 clinical VRE isolates; in vitro therapeutic index, VRE): 33
IC50 [4]: 157 ± 7 µM
MIC (S. aureus VISA/HIP5827; Staphylococcus aureus, VISA): 3.13 µM (≈ 1.06 µg/mL)
MIC-fold improvement vs. vancomycin (S. aureus VISA/HIP5827; VISA/HIP5827, ratio of MIC of vancomycin and MIC of analogue): 2
MIC (VE 150 (VanB)): 12.5 µM (≈ 4.22 µg/mL)
time-kill curve character (MRSA [5]): typical bacteriostatic time-kill curve
MIC (VE 149 (VanB)): 12.5 µM (≈ 4.22 µg/mL)
MIC ([6]; ATCC6538, Staphylococcus aureus VSSA, read-out: MIC): > 3.13 µM
MIC-fold improvement vs. vancomycin ([6]; VSSA, ratio of MIC of vancomycin and MIC of analogue): <0.2
MIC (VE 152 (VanB)): 12.5 µM (≈ 4.22 µg/mL)
MIC (VE 148 (VanB)): 12.5 µM (≈ 4.22 µg/mL)
MIC-fold improvement vs. vancomycin (MRSA KS6; MRSA KS6, ratio of MIC of vancomycin and MIC of analogue): 0.1
MIC (MRSA KS6; Staphylococcus aureus, MRSA): 6.25 µM (≈ 2.11 µg/mL)
MIC Range ([7]; 24 clinical MRSA isolates): 6.25 to 25 µM
MIC50 ([7]; Staphylococcus aureus, median MIC, 24 clinical MRSA isolates, read-out: MIC50): 25 µM (≈ 8.43 µg/mL)
TI (IC50/MIC50) ([7]; in vitro therapeutic index, MRSA): 8
IC50 ([8]; average IC50 used for TI in Table S5, >250 entered as 250, read-out: IC50): 208 µM
IC50 ([8]; average of L1210, CEM and HeLa, read-out: Toxicity (IC50) Average): 208 µM
